# Test results taken from patent publication US6358885B1, “Substituted phenylheterocyclic herbicides” (Mississippi State University, priority 1992, dated 2002).
# Experiments:
# bedstraw = assay: Test C preemergence/postemergence greenhouse plant response rating 0 to 100; type: in vivo, Galium aparine; details: POSTEMERGENCE
# Summary of the method: (§1)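 Compounds in non-phytotoxic solvent applied preemergence to sandy loam one day after planting, postemergence at the 1–4 leaf stage, or to ~2.5 cm floodwater over silt loam.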
# lambsquarters [1] = assay: Test B preemergence/postemergence greenhouse plant response rating 0 to 10; type: in vivo, Chenopodium album; details: 0 to 10 scale
# Summary of the method: (§2)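 Postemergence treatment of plants two to eighteen cm tall ran alongside preemergence treatment of planted seed, each using compound in a non-phytotoxic solvent.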
# cheatgrass = assay: as above; type: in vivo, Bromus secalinus; details: for Plant response rating, Cheatgrass: 0 to 10 scale
# Summary of the method: as §2
# wild oat = assay: as above; type: in vivo, Avena fatua; details: POSTEMERGENCE, 0 to 10 scale
# Summary of the method: as §2
# sorghum = assay: Test C preemergence/postemergence greenhouse plant response rating 0 to 100; type: in vivo, Sorghum bicolor; details: POSTEMERGENCE
# Summary of the method: as §1
# cotton [2] = assay: as above; type: in vivo, Gossypium hirsutum; details: POSTEMERGENCE
# Summary of the method: as §1
# cotton [3] = assay: Test B preemergence/postemergence greenhouse plant response rating 0 to 10; type: in vivo, Gossypium hirsutum; details: for Plant response rating, Cotton: 0 to 10 scale
# Summary of the method: as §2
# giant foxtail = assay: Test C preemergence/postemergence greenhouse plant response rating 0 to 100; type: in vivo, Setaria faberii; details: POSTEMERGENCE
# Summary of the method: as §1
# duck salad = assay: Test C flood test plant response rating 0 to 100; type: in vivo, Heteranthera limosa
# Summary of the method: as §1
# crabgrass = assay: Test C preemergence/postemergence greenhouse plant response rating 0 to 100; type: in vivo, Digitaria sanguinalis; details: POSTEMERGENCE
# Summary of the method: as §1
# corn = assay: Test B preemergence/postemergence greenhouse plant response rating 0 to 10; type: in vivo, Zea mays; details: for Plant response rating, Corn: 0 to 10 scale
# Summary of the method: as §2
# barnyardgrass = assay: Test C flood test plant response rating 0 to 100; type: in vivo, Echinochloa crus-galli
# Summary of the method: as §1
# downy brome = assay: Test C preemergence/postemergence greenhouse plant response rating 0 to 100; type: in vivo, Bromus tectorum; details: POSTEMERGENCE
# Summary of the method: as §1
# velvetleaf = assay: as above; type: in vivo, Abutilon theophrasti; details: POSTEMERGENCE
# Summary of the method: as §1
# lambsquarters [4] = assay: as above; type: in vivo, Chenopodium album; details: POSTEMERGENCE
# Summary of the method: as §1
# sugar beet = assay: as above; type: in vivo, Beta vulgaris; details: POSTEMERGENCE
# Summary of the method: as §1
# wheat = assay: Test B preemergence/postemergence greenhouse plant response rating 0 to 10; type: in vivo, Triticum aestivum; details: 0 to 10 scale
# Summary of the method: as §2
# rice = assay: as above; type: in vivo, Oryza sativa; details: 0 to 10 scale
# Summary of the method: as §2
# [5] = POSTEMERGENCE section, flood test, Rate 1 g/ha
# [6] = Rate 16 g/ha, under POSTEMERGENCE head (flood test species)
# [7] = flood test species listed under POSTEMERGENCE, 62 g/ha, 0 to 100 scale
compound,measurement,setting,value
CC(C)N1C(=O)COc2cc(F)c(-c3nn4c(c3Cl)CCCC4)cc21 [Compound 31],"Plant response rating, Bedstraw","bedstraw; 62 g/ha, 0 to 100 scale",100
same,"Plant response rating (0 to 100), Bedstraw",bedstraw; Rate 1 g/ha,75
same,"Plant response rating (0 to 100), Bedstraw",bedstraw; Rate 4 g/ha,85
same,"Plant response rating (0 to 100), Bedstraw",bedstraw; Rate 16 g/ha,100
same,"Plant response rating, Lambsquarter","lambsquarters [1]; POSTEMERGENCE, Rate 10 g/ha",10
same,"Plant response rating, Lambsquarter","lambsquarters [1]; POSTEMERGENCE, Rate 50 g/ha",10
same,"Plant response rating, Lambsquarter","lambsquarters [1]; PREEMERGENCE, Rate 50 g/ha",10
same,"Plant response rating, Cheatgrass","cheatgrass; POSTEMERGENCE, Rate 10 g/ha",5
same,"Plant response rating (0 to 10 scale), Cheatgrass","cheatgrass; POSTEMERGENCE, Rate 50 g/ha",6
same,"Plant response rating, Cheatgrass","cheatgrass; PREEMERGENCE, Rate 10 g/ha",2
same,"Plant response rating, Cheatgrass","cheatgrass; PREEMERGENCE, Rate 50 g/ha",6
same,"Plant response rating, Wild oat",wild oat; Rate 10 g/ha,5
same,"Plant response rating, Wild oat",wild oat; Rate 50 g/ha,6
same,"Plant response rating, Sorghum","sorghum; 62 g/ha, 0 to 100 scale",50
same,"Plant response rating (0 to 100), Sorghum",sorghum; Rate 1 g/ha,20
same,"Plant response rating (0 to 100), Sorghum",sorghum; Rate 4 g/ha,40
same,"Plant response rating (0 to 100), Sorghum",sorghum; Rate 16 g/ha,50
same,"Plant response rating, Cotton","cotton [2]; 62 g/ha, 0 to 100 scale",100
same,"Plant response rating (0 to 100), Cotton",cotton [2]; Rate 1 g/ha,90
same,"Plant response rating (0 to 100), Cotton",cotton [2]; Rate 4 g/ha,100
same,"Plant response rating (0 to 100), Cotton",cotton [2]; Rate 16 g/ha,100
same,"Plant response rating, Cotton","cotton [3]; POSTEMERGENCE, Rate 10 g/ha",10
same,"Plant response rating (0 to 10 scale), Cotton","cotton [3]; POSTEMERGENCE, Rate 50 g/ha",10
same,"Plant response rating, Cotton","cotton [3]; PREEMERGENCE, Rate 10 g/ha",0
same,"Plant response rating, Cotton","cotton [3]; PREEMERGENCE, Rate 50 g/ha",0
same,"Plant response rating, Giant foxtail","giant foxtail; 62 g/ha, 0 to 100 scale",40
same,"Plant response rating (0 to 100), Giant foxtail",giant foxtail; Rate 1 g/ha,10
same,"Plant response rating (0 to 100), Giant foxtail",giant foxtail; Rate 4 g/ha,20
same,"Plant response rating (0 to 100), Giant foxtail",giant foxtail; Rate 16 g/ha,30
same,"Plant response rating (0 to 100), Duck salad",duck salad; [5],0
same,"Plant response rating (0 to 100), Duck salad","duck salad; POSTEMERGENCE section, flood test, Rate 4 g/ha",0
same,"Plant response rating (0 to 100), Duck salad",duck salad; [6],40
same,Plant response rating Duck salad,duck salad; [7],40
same,"Plant response rating, Crabgrass","crabgrass; 62 g/ha, 0 to 100 scale",50
same,"Plant response rating (0 to 100), Crabgrass",crabgrass; Rate 1 g/ha,10
same,"Plant response rating (0 to 100), Crabgrass",crabgrass; Rate 4 g/ha,20
same,"Plant response rating (0 to 100), Crabgrass",crabgrass; Rate 16 g/ha,30
same,"Plant response rating, Corn","corn; POSTEMERGENCE, Rate 10 g/ha",4
same,"Plant response rating (0 to 10 scale), Corn","corn; POSTEMERGENCE, Rate 50 g/ha",3
same,"Plant response rating, Corn","corn; PREEMERGENCE, Rate 50 g/ha",0
same,"Plant response rating (0 to 100), Barnyardgrass",barnyardgrass; [5],20
same,"Plant response rating (0 to 100), Barnyardgrass","barnyardgrass; Rate 4 g/ha, under POSTEMERGENCE head (flood test species)",65
same,"Plant response rating (0 to 100), Barnyardgrass",barnyardgrass; [6],90
same,"Plant response rating, Barnyardgrass",barnyardgrass; [7],100
same,Plant response rating Downy Brome,"downy brome; 62 g/ha, 0 to 100 scale",40
same,"Plant response rating (0 to 100), Downy Brome",downy brome; Rate 1 g/ha,10
same,"Plant response rating (0 to 100), Downy Brome",downy brome; Rate 4 g/ha,20
same,"Plant response rating (0 to 100), Downy Brome",downy brome; Rate 16 g/ha,40
same,"Plant response rating, Velvetleaf","velvetleaf; 62 g/ha, 0 to 100 scale",100
same,"Plant response rating (0 to 100), Velvetleaf",velvetleaf; Rate 1 g/ha,85
same,"Plant response rating (0 to 100), Velvetleaf",velvetleaf; Rate 4 g/ha,95
same,"Plant response rating (0 to 100), Velvetleaf",velvetleaf; Rate 16 g/ha,100
same,Plant response rating Lambsquarters,"lambsquarters [4]; 62 g/ha, 0 to 100 scale",95
same,"Plant response rating (0 to 100), Lambsquarters",lambsquarters [4]; Rate 1 g/ha,40
same,"Plant response rating (0 to 100), Lambsquarters",lambsquarters [4]; Rate 16 g/ha,85
same,"Plant response rating, Sugar beet","sugar beet; 62 g/ha, 0 to 100 scale",100
same,"Plant response rating (0 to 100), Sugar beet",sugar beet; Rate 1 g/ha,60
same,"Plant response rating (0 to 100), Sugar beet",sugar beet; Rate 4 g/ha,100
same,"Plant response rating (0 to 100), Sugar beet",sugar beet; Rate 16 g/ha,100
same,"Plant response rating, Wheat","wheat; POSTEMERGENCE, Rate 10 g/ha",5
same,"Plant response rating, Wheat","wheat; POSTEMERGENCE, Rate 50 g/ha",5
same,"Plant response rating, Wheat","wheat; PREEMERGENCE, Rate 50 g/ha",1
same,"Plant response rating, Rice","rice; POSTEMERGENCE, Rate 10 g/ha",4
same,"Plant response rating, Rice","rice; POSTEMERGENCE, Rate 50 g/ha",7
same,"Plant response rating, Rice","rice; PREEMERGENCE, Rate 50 g/ha",0
